Assays:
hippocampal neurons = settings: hippocampal cell culture; cited from earlier work
CKIε = CKIε (Homo sapiens, UniProt P49674); settings: cited from earlier work
CKIδ = CKIδ (Homo sapiens, UniProt P48730); settings: cited from earlier work
human subjects [1] = experiment: Timed Up and Go (TUG) test, 16-week placebo-controlled clinical study; type: in vivo; settings: 8 and 16 weeks
Method: FIG. 1A illustrates the Timed Up and Go (TUG) test, wherein the time it takes a subject to stand up from a chair, walk three meters, turn around and return to the chair is measured.
(§1) A double-blind placebo-controlled, 16-week, treatment with neflamapimod was conducted in parallel groups at 22 centers in the US and 2 centers in the Netherlands.
(§2) Inclusion criteria included Mild-to-moderate (MMSE 15-28) probable Dementia with Lewy Bodies by consensus criteria (McKeith et al, Neurology, 2017; 89:88-100), a positive reading of DaTscan™, and have to have been currently receiving cholinesterase inhibitor therapy (>3 months and stable dose >6 weeks). If DaTscan™ was negative, subjects could also be enrolled with history of polysomnography-confirmed REM sleep disorder (6 study participants so enrolled). The study was randomized 1:1 to 40 mg neflamapimod or matching-placebo capsules. Dosing regimen was based on weight: subjects weighing <80 kg received capsules twice-daily (BID) and those weighing ≥80 kg received capsules three-times-a-day (TID).
Secondary clinical endpoints included the following. (a) International Shopping List Test (ISLT); (b) Timed Up and Go Test (TUG), Ten item Neuropsychiatric Inventory (NPI-10); and (c) Clinical Dementia Rating scale Sum-of-Boxes (CDR-SB). […]

human subjects [2] = experiment: EEG beta functional connectivity, corrected Amplitude Envelope Correlation (AECc); type: in vivo
Method: “40 mg” refers to combined neflamapimod patients, including 40 mg BID and 40 mg TID.
These regions, in particular the frontal cortex, receive cholinergic input, including projections from the nucleus basalis of Meynert. Dysfunction of the cholinergic system leads to impaired cortical functional connectivity, which is disruptive to the performance of complex motor functions such as gait. The ability of neflamapimod to improve functional connectivity, as measured by EEG in the experiments described herein, provides further support for the efficacy of neflamapimod to alleviate gait dysfunction.
Functional connectivity analysis, specifically corrected Amplitude Envelope Correlation (AECc), measures interregional communication or so-called ‘functional connectivity’ between different brain regions. In the functional connectivity analysis, a positive neflamapimod treatment effect on AECc in the beta band (13-30 Hz) was identified. Mean AECc beta was increased with neflamapimod TID versus all placebo (p=0.033) and versus placebo TID (p=0.01).

human subjects [3] = experiment: Personal Care Domain of Clinical Dementia Rating Scale Sum of Boxes (CDR-SB); type: in vivo; settings: neflamapimod vs placebo over 16 weeks; p=0.02 (MMRM), FIG. 4
Method: as §1, §2
Secondary clinical endpoints included the following. (a) International Shopping List Test (ISLT); (b) Timed Up and Go Test (TUG), Ten item Neuropsychiatric Inventory (NPI-10); and (c) Clinical Dementia Rating scale Sum-of-Boxes (CDR-SB). The TUG test is useful to measure risk of fall in patients with or at risk of suffering from Parkinson's disease (see e.g., Arch Phys Med Rehabil. 2013 July; 94(7): 1300-1305).

Sequence of CKIδ (P48730 whole entry, species assumed): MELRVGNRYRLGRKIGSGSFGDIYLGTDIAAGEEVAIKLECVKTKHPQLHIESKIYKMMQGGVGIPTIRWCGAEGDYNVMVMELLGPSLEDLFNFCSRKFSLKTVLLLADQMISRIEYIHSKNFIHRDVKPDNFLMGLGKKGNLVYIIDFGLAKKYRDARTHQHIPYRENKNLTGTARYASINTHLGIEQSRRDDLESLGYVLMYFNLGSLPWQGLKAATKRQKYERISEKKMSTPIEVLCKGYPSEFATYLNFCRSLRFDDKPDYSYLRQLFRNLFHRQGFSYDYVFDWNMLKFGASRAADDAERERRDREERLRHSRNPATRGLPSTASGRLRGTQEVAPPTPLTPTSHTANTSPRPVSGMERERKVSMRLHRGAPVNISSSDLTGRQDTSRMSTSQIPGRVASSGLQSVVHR
Sequence of CKIε (P49674 whole entry, species assumed): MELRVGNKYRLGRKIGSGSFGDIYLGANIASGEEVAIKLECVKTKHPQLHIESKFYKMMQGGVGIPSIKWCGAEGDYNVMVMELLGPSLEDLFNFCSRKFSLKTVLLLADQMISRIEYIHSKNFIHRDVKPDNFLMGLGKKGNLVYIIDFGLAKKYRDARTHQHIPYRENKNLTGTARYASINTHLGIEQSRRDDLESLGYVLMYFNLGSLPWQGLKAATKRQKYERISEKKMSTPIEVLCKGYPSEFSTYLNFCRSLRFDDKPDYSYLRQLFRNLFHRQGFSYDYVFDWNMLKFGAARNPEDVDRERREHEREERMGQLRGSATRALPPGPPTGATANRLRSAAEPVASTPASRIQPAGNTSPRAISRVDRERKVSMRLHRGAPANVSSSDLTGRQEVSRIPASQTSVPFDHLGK

| SMILES | Effect against amyloid β-derived diffusible ligand (ADDL) induced synaptotoxicity (hippocampal neurons) | Inhibition of casein kinase isoform CKIε (CKIε) | Inhibition of casein kinase isoform CKIδ (CKIδ) | TUG test outcome (human subjects [1]; all neflamapimod (40 mg BID and 40 mg TID) vs all placebo, p=0.044 (MMRM), FIG. 2) | TUG test outcome (human subjects [1]; neflamapimod 40 mg TID vs placebo TID, p=0.024 (MMRM), FIG. 3) | AECc in each of the other bands (human subjects [2]; EEG bands other than beta) | Mean AECc beta (13-30 Hz) functional connectivity (human subjects [2]; neflamapimod TID versus all placebo (p=0.033) and versus placebo TID (p=0.01)) | AECc beta by brain region (human subjects [2]; placebo TID versus neflamapimod TID, frontal p=0.009, temporal p=0.036, parietal p=0.036) | Personal care domain of the CDR sum of boxes (human subjects [3]) |
| --- | --- | --- | --- | --- | --- | --- | --- | --- | --- |
| COc1nccc(-c2c(-c3ccc(F)cc3)ncn2C2CCC(O)CC2)n1 (stereo not shown) [SB239063] | ineffective | inhibit | inhibit |  |  |  |  |  |  |
| O=c1ncn2nc(Sc3ccc(F)cc3F)ccc2c1-c1c(Cl)cccc1Cl [neflamapimod, 5-(2,6-dichlorophenyl)-2-(2,4-difluorophenylthio)-6H-pyrimido[1,6-b]pyridazin-6-one] | positive effects |  |  | significantly improve outcome | significantly improve outcome | stable or slightly improved with no treatment group differences | increased | most prominent in the frontal region | significant positive outcome |
